# Legend:
# Type in all cases: cell-based
# [1] = tested on: cellular contractility of phLFs; assay: 3D collagen gel contractility assay of primary human lung fibroblasts; conditions: n=3 patient phLFs
# Method: In a 96-well imaging plate 50 μl 3D collagen gels were casted per well as described before (30), and 20.000 phLFs per well were seeded on top. Cells were treated with 1 ng/mL TGFβ1 and/or example 84. After 72 h cells were fixed with 4% paraformaldehyde. Collagen gels were imaged using an Axiolmager2 (Zeiss) and the gel diameter was determined using Zen Blue v2.5 (Zeiss).
# PAI-1/SERPINE1 = assay: Human precision cut lung slices (PCLS) with fibrotic cocktail: immunoblot of secreted PAI-1; conditions: living human PCLS
# Method: (§1) PCLS were prepared as described before (31, 32). Shortly, PCLS were prepared from tumor-free peri-tumor tissue. The lung tissue was inflated with 3% agarose solution and solidified at 4° C. Tissue blocks were cut in μm thick PCLS using a vibration microtome Hyrax V50 (Zeiss). PCLS were cultured in DMEM F-12 medium and treated with a profibrotic cocktail, as described before (31), or vehicle, as well as with small molecules or vehicles for 7 days. After culturing and treatments, supernatants were harvested. PCLS were […] washed in PBS and protein was extracted as previously described (33). Briefly, PCLS were pooled in an Eppendorf tube and lysed in 500 μl ice-cold RIPA buffer (50 mM Tris-CI pH 7.4, 150 mM NaCl, 1% NP40, 0.25% Na-deoxycholate) containing 1× Roche complete mini protease inhibitor cocktail (Roche, Cat. #11697498001). After an incubation of 2 hours rotating at 4° C., the lung slices were removed from the lysates and the protein content was measured.
# (§2) Cells were scraped off the plastic dish directly into 200 μl ice-cold RIPA buffer containing 1× Roche complete mini protease inhibitor cocktail. […] CXCL/IL-8 concentrations were determined using Human IL-8/CXCL8 DuoSet ELISA (DY208-05) according to the manufacturer's protocol.
# CXCL8/IL-8 = assay: Human precision cut lung slices (PCLS) with fibrotic cocktail: IL-8 ELISA; conditions: living human PCLS
# Method: as §1, §2
smiles,measurement,setting,value
"CCCCOc1ccccc1NC(=O)/C=C/c1ccc(OC)c(OC)c1 [Example 84, (E)-N-(2-butoxyphenyl)-3-(3,4-dimethoxyphenyl)acrylamide]",cellular contractility (collagen gel),[1],significant inhibition of cellular contractility
same,secreted PAI-1/SERPINE1,PAI-1/SERPINE1,diminution of secreted pro-fibrotic PAI-1/SERPINE1
same,CXCL8/IL-8 (ELISA),CXCL8/IL-8,diminution of pro-fibrotic CXCL8/IL-8
